This data set has as its system K562 CRISPRi cells. Nature of the data set: Perturb-seq pooled growth measurement (sgRNA counts, growth phenotype γ, relative activity). The format is cell-based, human. Conditions: sequencing read counts; for Perturb-seq pooled growth sgRNA counts, d5: 5 days of growth (day seven after transduction); for Perturb-seq pooled growth sgRNA counts, d10: 10 days of growth (day twelve after transduction); for Perturb-seq pooled growth sgRNA counts, T0: T0 = day two after transduction. An outline of the steps:
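sgRNA abundance was sequenced from genomic DNA of the same transduced population sampled on days two, seven and twelve. Phenotype γ compares normalized day seven and twelve counts with day two. Day-seven values (five days of growth) define relative sgRNA activity.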

For the substance “RPL9_+_39460483.23-P1P2_05: sgRNA targeting RPL9, GGATGTTTCGGTGCTCGTGG, SEQ ID NO: 52 (listed as DNA, chemistry not fully specified)”, the “Perturb-seq pooled growth sgRNA counts, d5” value was 2217; the “Perturb-seq pooled growth sgRNA counts, d10” value stood at 2355; the “Perturb-seq pooled growth sgRNA counts, T0” value came to 4950.

For the substance “RPL9_+_39460483.23-P1P2_07: sgRNA targeting RPL9, GGATGTTTCTGCGCTCGTGG, SEQ ID NO: 54 (listed as DNA, chemistry not fully specified)”, the “Perturb-seq pooled growth sgRNA counts, d5” value amounted to 7867; the “Perturb-seq pooled growth sgRNA counts, d10” value was determined as 9339; the “Perturb-seq pooled growth sgRNA counts, T0” value came to 7336.

Regarding “RPS14_+_149829238.23-P1P2_00: sgRNA targeting RPS14, GAGGCCCGGGCGCGACAATC, SEQ ID NO: 45 (listed as DNA, chemistry not fully specified)”, the “Perturb-seq pooled growth sgRNA counts, d5” value stood at 3190; the “Perturb-seq pooled growth sgRNA counts, d10” value was 2984; the “Perturb-seq pooled growth sgRNA counts, T0” value is 11846.

Regarding “RPS14_+_149829238.23-P1P2_01: sgRNA targeting RPS14, GAGACCCGGGCGCGACAATC, SEQ ID NO: 46 (listed as DNA, chemistry not fully specified)”, the “Perturb-seq pooled growth sgRNA counts, d5” value is given as 1474; the “Perturb-seq pooled growth sgRNA counts, d10” value turned out to be 1385; the “Perturb-seq pooled growth sgRNA counts, T0” value is recorded as 4954.

Regarding “RPS14_+_149829238.23-P1P2_02: sgRNA targeting RPS14, GAGGCCCTGGCGCGACAATC, SEQ ID NO: 47 (listed as DNA, chemistry not fully specified)”, the “Perturb-seq pooled growth sgRNA counts, d5” value is 5497; the “Perturb-seq pooled growth sgRNA counts, d10” value came out at 5538; the “Perturb-seq pooled growth sgRNA counts, T0” value turned out to be 11519.

Turning to “RPS14_+_149829238.23-P1P2_04: sgRNA targeting RPS14, GAGGCCCGCGCGCGACAATC, SEQ ID NO: 48 (listed as DNA, chemistry not fully specified)”, the “Perturb-seq pooled growth sgRNA counts, d5” value was found to be 9641; the “Perturb-seq pooled growth sgRNA counts, d10” value was determined as 12547; the “Perturb-seq pooled growth sgRNA counts, T0” value came to 9244.

“RPS14_+_149829238.23-P1P2_08: sgRNA targeting RPS14, GAGGCCCGGGCTCGACAATC, SEQ ID NO: 50 (listed as DNA, chemistry not fully specified)”: the “Perturb-seq pooled growth sgRNA counts, d5” value came out at 11681; the “Perturb-seq pooled growth sgRNA counts, d10” value turned out to be 17976; the “Perturb-seq pooled growth sgRNA counts, T0” value worked out at 4488.

“RPS14_+_149829238.23-P1P2_13: sgRNA targeting RPS14, GAGGCCCGGGCGCGACAGTC, SEQ ID NO: 49 (listed as DNA, chemistry not fully specified)”: the “Perturb-seq pooled growth sgRNA counts, d5” value is 9567; the “Perturb-seq pooled growth sgRNA counts, d10” value is 12082; the “Perturb-seq pooled growth sgRNA counts, T0” value is on record as 7137.

Take “RPS15_−_1438413.23-P1P2_00: sgRNA targeting RPS15, GACCAAAGCGATCTCTTCTG, SEQ ID NO: 60 (listed as DNA, chemistry not fully specified)”: the “Perturb-seq pooled growth sgRNA counts, d5” value is 2912; the “Perturb-seq pooled growth sgRNA counts, d10” value came out at 3376; the “Perturb-seq pooled growth sgRNA counts, T0” value is reported as 6757.

As to “RPS15_−_1438413.23-P1P2_01: sgRNA targeting RPS15, GACCAAACCGATCTCTTCTG, SEQ ID NO: 64 (listed as DNA, chemistry not fully specified)”, the “Perturb-seq pooled growth sgRNA counts, d5” value is reported as 23866; the “Perturb-seq pooled growth sgRNA counts, d10” value is 39345; the “Perturb-seq pooled growth sgRNA counts, T0” value is 9713.

Regarding “RPS15_−_1438413.23-P1P2_02: sgRNA targeting RPS15, GACCAAGGCGATCTCTTCTG, SEQ ID NO: 62 (listed as DNA, chemistry not fully specified)”, the “Perturb-seq pooled growth sgRNA counts, d5” value was determined as 3113; the “Perturb-seq pooled growth sgRNA counts, d10” value amounted to 3548; the “Perturb-seq pooled growth sgRNA counts, T0” value amounted to 5051.

The values above are taken from US20220259593A1, “CONTROL OF MAMMALIAN GENE DOSAGE USING CRISPR” (The Regents of the University of California, priority 2019, published 2022).
